Read-outs that look alike come from different tables or passages of the source.
How the values were obtained:
[1] = system: A172 (Human neuroblastoma); assay: CellTiterGlo cell viability assay; type: cell-based; conditions: A 172
Experimental: (§1) Briefly, test compounds (5 μl stock solution, 6×desired final well concentration) were dispensed to 384-well assay plates, TSC2−/− MEF cells (1000 cells per well in 25 μL of media) were added to the plates and the plates were incubated for 72 h (3 days) at 37° C. under an atmosphere of 5% CO2 in a humidified incubator for 3 days. Cell viability was determined with CellTiter-Glo® luminescence assay (Promega) per the manufacturer's instructions. Viability was expressed as a percentage of untreated control cells.
(§2) 35 cell lines were identified as sensitive to apilimod-induced cytotoxicity in this assay. The apilimod-sensitive cells included cells derived from several different cancers including non-Hodgkin's lymphoma, Hodgkin's lymphoma, colorectal cancer, and lung cancer. The most sensitive of those tested were non-Hodgkin's Lymphoma (NHL) cell lines. […] The only NHL subtype not sensitive in this assay was follicular.

[2] = system: COLO-320DM (Human Colorectal); assay: CellTiterGlo cell viability assay; type: cell-based
Experimental: as §1, §2

[3] = system: DB (Human B-cell lymphoma); assay: CellTiterGlo cell viability assay; type: cell-based; conditions: Human DLBCL-GCB
Experimental: as §1, §2

[4] = system: DLD-1 (Human colorectal cancer); assay: CellTiterGlo cell viability assay; type: cell-based
Experimental: as §1, §2

[5] = system: EB1 (Human Burkitt's lymphoma); assay: CellTiterGlo cell viability assay; type: cell-based
Experimental: as §1, §2

[6] = system: H1693 (Human lung carcinoma); assay: CellTiterGlo cell viability assay; type: cell-based; conditions: NCI-H1693
Experimental: as §1, §2

[7] = system: H460 (Human lung carcinoma); assay: CellTiterGlo cell viability assay; type: cell-based; conditions: NCI-H460
Experimental: as §1, §2

[8] = system: HCT-15 (Human Colorectal); assay: CellTiterGlo cell viability assay; type: cell-based
Experimental: as §1, §2

[9] = system: HD-MyZ (Human Hodgkin's lymphoma); assay: CellTiterGlo cell viability assay; type: cell-based
Experimental: as §1, §2

[10] = system: HDLM-2 (Human Hodgkin's lymphoma); assay: CellTiterGlo cell viability assay; type: cell-based
Experimental: as §1, §2

[11] = system: HH (Human T-cell lymphoma); assay: CellTiterGlo cell viability assay; type: cell-based
Experimental: as §1, §2

[12] = system: HT (Human Diffuse Large B Cell Lymphoma -GCB); assay: CellTiterGlo cell viability assay; type: cell-based; conditions: Human DLBCL-GCB
Experimental: as §1, §2

[13] = system: KARPAS-422 (Human Diffuse Large B Cell Lymphoma -GCB); assay: CellTiterGlo cell viability assay; type: cell-based; conditions: Human DLBCL-GCB
Experimental: as §1, §2

[14] = system: KG-1 (Human acute myelogenous leukemia); assay: CellTiterGlo cell viability assay; type: cell-based
Experimental: as §1, §2

[15] = system: KMH-2 (Human Hodgkin's lymphoma); assay: CellTiterGlo cell viability assay; type: cell-based; conditions: KM-H2
Experimental: as §1, §2

[16] = system: L428 (Human Hodgkin's lymphoma); assay: CellTiterGlo cell viability assay; type: cell-based; conditions: L-428
Experimental: as §1, §2

LOVO (Human Colorectal) = assay: CellTiterGlo cell viability assay; type: cell-based
Experimental: as §1, §2

[17] = system: MDST8 (Human colorectal cancer); assay: CellTiterGlo cell viability assay; type: cell-based
Experimental: as §1, §2

[18] = system: NCI-1975 (Human lung carcinoma); assay: CellTiterGlo cell viability assay; type: cell-based
Experimental: as §1, §2

[19] = system: NCI-H1666 (Human bronchioalveolar); assay: CellTiterGlo cell viability assay; type: cell-based
Experimental: as §1, §2

[20] = system: Pfeiffer (Human Diffuse Large B Cell Lymphoma -GCB); assay: CellTiterGlo cell viability assay; type: cell-based; conditions: Human DLBCL-GCB
Experimental: as §1, §2

[21] = system: RKO (Human colorectal cancer); assay: CellTiterGlo cell viability assay; type: cell-based
Experimental: as §1, §2

[22] = system: RL (Human Follicular B Cell Lymphoma); assay: CellTiterGlo cell viability assay; type: cell-based
Experimental: as §1, §2

[23] = system: ST486 (Human Burkitt's lymphoma); assay: CellTiterGlo cell viability assay; type: cell-based
Experimental: as §1, §2

[24] = system: SUDHL-1 (Human Anaplastic Large Cell Lymphoma); assay: CellTiterGlo cell viability assay; type: cell-based; conditions: SU-DHL-1
Experimental: as §1, §2

[25] = system: SUDHL-10 (Human Diffuse Large B Cell Lymphoma -GCB); assay: CellTiterGlo cell viability assay; type: cell-based; conditions: SU-DHL10, Human DLBCL-GCB
Experimental: as §1, §2

[26] = system: SUDHL-6 (Human Diffuse Large B Cell Lymphoma -GCB); assay: CellTiterGlo cell viability assay; type: cell-based; conditions: SU-DHL-6, Human DLBCL-GCB
Experimental: as §1, §2

[27] = system: SW1116 (Human colorectal cancer); assay: CellTiterGlo cell viability assay; type: cell-based; conditions: SW 1116
Experimental: as §1, §2

[28] = system: SW1573 (Human bronchioalveolar); assay: CellTiterGlo cell viability assay; type: cell-based
Experimental: as §1, §2

SW480 (Human Colorectal) = assay: CellTiterGlo cell viability assay; type: cell-based
Experimental: as §1, §2

[29] = system: Toledo (Human Diffuse Large B Cell Lymphoma -GCB); assay: CellTiterGlo cell viability assay; type: cell-based; conditions: Human DLBCL-GCB
Experimental: as §1, §2

[30] = system: U-118 MG (Human neuroblastoma); assay: CellTiterGlo cell viability assay; type: cell-based
Experimental: as §1, §2

[31] = system: U937 (Human histiocytic lymphoma); assay: CellTiterGlo cell viability assay; type: cell-based; conditions: U-937
Experimental: as §1, §2

[32] = system: SUDHL-4 (Human Diffuse Large B Cell Lymphoma -GCB); assay: CellTiterGlo cell viability assay; type: cell-based
[33] = system: DU145 (Human prostate cancer); assay: CellTiterGlo cell viability assay; type: cell-based; conditions: DU-145
[34] = system: 122 human cancer cell lines representing 24 tumor types; assay: 3-day CellTiterGlo assay, cancer cell line panel; type: cell-based; conditions: of 122 human cancer cell lines; sensitive if IC50 less than 500 nM; 3-day assay
Source text: as §2

[35] = system: non-Hodgkin's Lymphoma (NHL) cell lines; assay: 3-day CellTiterGlo assay, NHL cell lines; type: cell-based, human; conditions: sensitive if IC50 less than 500 nM; 3-day assay
Source text: as §2

Cc1cccc(/C=N/Nc2cc(N3CCOCC3)nc(OCCc3ccccn3)n2)c1 [apilimod]
IC50 [1]: 2000 nM
IC50 [2]: 2060 nM
IC50 [3]: 150 nM
IC50 [4]: > 5000 nM
IC50 [5]: 174 nM
IC50 [6]: 2000 nM
IC50 [7]: > 2000 nM
IC50 [8]: 200 nM
IC50 [9]: > 1000 nM
IC50 [10]: > 1000 nM
IC50 [11]: 3300 nM
IC50 [12]: 642 nM
IC50 [13]: > 10000 nM
IC50 [14]: > 2500 nM
IC50 [15]: 181 nM
IC50 [16]: 10000 nM
IC50 (LOVO (Human Colorectal)): > 10000 nM
IC50 [17]: 1000 nM
IC50 [18]: > 10000 nM
IC50 [19]: 20000 nM
IC50 [20]: 2620 nM
IC50 [21]: > 5000 nM
IC50 [22]: > 10000 nM
IC50 ([23]; Homo sapiens, 72 h, 3-day CellTiterGlo assay): < 100 nM
IC50 ([23]; Human Burkitt's lymphoma): 25 nM
IC50 [24]: 590 nM
IC50 [25]: 20 nM
IC50 [26]: 80 nM
IC50 [27]: 1500 nM
IC50 [28]: > 20000 nM
IC50 (SW480 (Human Colorectal)): 90 nM
IC50 [29]: 270 nM
IC50 [30]: > 10000 nM
IC50 [31]: 106 nM
IC50 ([32]; Homo sapiens, 72 h, SU-DHL-4, three-day assay, read-out: IC50 (nM) SU-DHL-4): 23 nM
IC50 ([32]; Homo sapiens, SU-DHL-4, 72 h, SUDHL-4, 3-day CellTiterGlo assay, read-out: IC50): 50 nM
IC50 ([32]; SU-DHL-4, SUDHL-4, Human DLBCL-GCB, read-out: IC50): 25 nM
IC50 [33]: > 2000 nM
number of cell lines sensitive to apilimod-induced cytotoxicity [34]: 35
share of NHL cell lines sensitive to apilimod [35]: over 50%

— US10350213B2 (AI Therapeutics, Inc., priority 2015, dated 2019)
